Test results reported in PubChem BioAssay (NCI).
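The compound was tested at five concentrations on cells cultured in 96-well plates, with a 48-hour exposure period. TGI denotes the concentration required for complete inhibition of growth.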

Legend:
Test in all cases: growth of human tumour cells (NCI), 48 h
SF-295 CNS = system: SF-295 CNS
RPMI-8226 leukemia = system: RPMI-8226 leukemia
OVCAR-8 ovarian = system: OVCAR-8 ovarian
UACC-257 melanoma = system: UACC-257 melanoma
ACHN renal = system: ACHN renal
XF 498 CNS = system: XF 498 CNS
OVCAR-5 ovarian = system: OVCAR-5 ovarian
DLD-1 colon = system: DLD-1 colon
IGROV1 ovarian = system: IGROV1 ovarian
UACC-62 melanoma = system: UACC-62 melanoma
HT29 colon = system: HT29 colon
786-0 renal = system: 786-0 renal
MALME-3M melanoma = system: MALME-3M melanoma
UO-31 renal = system: UO-31 renal
HCC-2998 colon = system: HCC-2998 colon
SNB-78 CNS = system: SNB-78 CNS
HCT-15 colon = system: HCT-15 colon
SK-MEL-28 melanoma = system: SK-MEL-28 melanoma
SF-539 CNS = system: SF-539 CNS
A549 NSCLC = system: A549 NSCLC
HOP-92 NSCLC = system: HOP-92 NSCLC
KM12 colon = system: KM12 colon
LXFL 529 NSCLC = system: LXFL 529 NSCLC
SN12C renal = system: SN12C renal
DMS 114 small cell lung = system: DMS 114 small cell lung
SK-OV-3 ovarian = system: SK-OV-3 ovarian
CCRF-CEM leukemia = system: CCRF-CEM leukemia
NCI-H460 lung = system: NCI-H460 lung
NCI-H23 lung = system: NCI-H23 lung
U251 CNS = system: U251 CNS
A498 renal = system: A498 renal
OVCAR-4 ovarian = system: OVCAR-4 ovarian
HL-60(TB) leukemia = system: HL-60(TB) leukemia
HOP-62 NSCLC = system: HOP-62 NSCLC
M19-MEL melanoma = system: M19-MEL melanoma
HCT-116 colon = system: HCT-116 colon
EKVX NSCLC = system: EKVX NSCLC
SF-268 CNS = system: SF-268 CNS
NCI-H226 lung = system: NCI-H226 lung
OVCAR-3 ovarian = system: OVCAR-3 ovarian
SW-620 colon = system: SW-620 colon
MOLT-4 leukemia = system: MOLT-4 leukemia
NCI-H522 lung = system: NCI-H522 lung
DMS 273 small cell lung = system: DMS 273 small cell lung
TK-10 renal = system: TK-10 renal
HOP-18 NSCLC = system: HOP-18 NSCLC
K-562 leukemia = system: K-562 leukemia
SNB-19 CNS = system: SNB-19 CNS
COLO 205 colon = system: COLO 205 colon
SK-MEL-2 melanoma = system: SK-MEL-2 melanoma
LOX IMVI melanoma = system: LOX IMVI melanoma
KM20L2 colon = system: KM20L2 colon
M14 melanoma = system: M14 melanoma
SK-MEL-5 melanoma = system: SK-MEL-5 melanoma
CAKI-1 renal = system: CAKI-1 renal
RXF 393 renal = system: RXF 393 renal
SR leukemia = system: SR leukemia
SNB-75 CNS = system: SNB-75 CNS

With CCCCOC(=O)NC(=O)c1cn(C2CCCCC2)c(=O)[nH]c1=O the TGI (SF-295 CNS) was over 100 µM, the TGI (RPMI-8226 leukemia) was over 100 µM and the TGI (OVCAR-8 ovarian) was over 100 µM. The TGI (UACC-257 melanoma) was over 100 µM, the TGI (ACHN renal) was 67.3 µM and the TGI (XF 498 CNS) was over 100 µM. The TGI (OVCAR-5 ovarian) was over 100 µM, the TGI (DLD-1 colon) was over 100 µM and the TGI (IGROV1 ovarian) was over 100 µM. It also gave a TGI (UACC-62 melanoma) of over 100 µM, a TGI (HT29 colon) of over 100 µM and a TGI (786-0 renal) of 40.1 µM. It also gave a TGI (MALME-3M melanoma) of 80.4 µM, a TGI (UO-31 renal) of 46.2 µM and a TGI (HCC-2998 colon) of over 100 µM. It also gave a TGI (SNB-78 CNS) of over 100 µM, a TGI (HCT-15 colon) of over 100 µM and a TGI (SK-MEL-28 melanoma) of over 100 µM. For the same molecule, the TGI (SF-539 CNS) was 37.9 µM, the TGI (A549 NSCLC) was over 100 µM and the TGI (HOP-92 NSCLC) was 55.1 µM. It also gave a TGI (KM12 colon) of over 100 µM, a TGI (LXFL 529 NSCLC) of 93 µM and a TGI (SN12C renal) of over 100 µM. For the same molecule, the TGI (DMS 114 small cell lung) was over 100 µM, the TGI (SK-OV-3 ovarian) was 41.4 µM and the TGI (CCRF-CEM leukemia) was over 100 µM. The TGI (NCI-H460 lung) was over 100 µM, the TGI (NCI-H23 lung) was over 100 µM and the TGI (U251 CNS) was 76.1 µM. It also gave a TGI (A498 renal) of 49 µM, a TGI (OVCAR-4 ovarian) of 48.6 µM and a TGI (HL-60(TB) leukemia) of over 100 µM. For the same molecule, the TGI (HOP-62 NSCLC) was 65.9 µM, the TGI (M19-MEL melanoma) was over 100 µM and the TGI (HCT-116 colon) was 50.1 µM. For the same molecule, the TGI (EKVX NSCLC) was over 100 µM, the TGI (SF-268 CNS) was over 100 µM and the TGI (NCI-H226 lung) was 46.3 µM. The TGI (OVCAR-3 ovarian) was over 100 µM, the TGI (SW-620 colon) was over 100 µM and the TGI (MOLT-4 leukemia) was over 100 µM. For the same molecule, the TGI (NCI-H522 lung) was over 100 µM, the TGI (DMS 273 small cell lung) was over 100 µM and the TGI (TK-10 renal) was over 100 µM. It also gave a TGI (HOP-18 NSCLC) of 49.4 µM, a TGI (K-562 leukemia) of over 100 µM and a TGI (SNB-19 CNS) of 69.3 µM. For the same molecule, the TGI (COLO 205 colon) was over 100 µM, the TGI (SK-MEL-2 melanoma) was over 100 µM and the TGI (LOX IMVI melanoma) was over 100 µM. The TGI (KM20L2 colon) was over 100 µM and the TGI (M14 melanoma) was over 100 µM.

N#C/C(=C\c1cc2ccccc2c2ccccc12)c1ccccc1 gave a TGI (SF-295 CNS) of 19.9 µM, a TGI (RPMI-8226 leukemia) of over 51.1 µM and a TGI (OVCAR-8 ovarian) of over 100 µM. The TGI (UACC-257 melanoma) was over 89 µM, the TGI (ACHN renal) was over 83.5 µM and the TGI (XF 498 CNS) was 12.5 µM. For the same molecule, the TGI (OVCAR-5 ovarian) was 98.6 µM, the TGI (DLD-1 colon) was over 90.2 µM and the TGI (IGROV1 ovarian) was over 51.8 µM. It also gave a TGI (UACC-62 melanoma) of 28.9 µM, a TGI (HT29 colon) of 18.1 µM and a TGI (786-0 renal) of 18 µM. The TGI (MALME-3M melanoma) was 19.5 µM, the TGI (UO-31 renal) was 57.7 µM and the TGI (HCC-2998 colon) was 59.2 µM. It also gave a TGI (SNB-78 CNS) of 34.2 µM, a TGI (HCT-15 colon) of 39.4 µM and a TGI (SK-MEL-28 melanoma) of over 100 µM. The TGI (SF-539 CNS) was 19.8 µM, the TGI (A549 NSCLC) was over 100 µM and the TGI (HOP-92 NSCLC) was over 71.7 µM. The TGI (SK-MEL-5 melanoma) was 19.7 µM, the TGI (CAKI-1 renal) was over 37.8 µM and the TGI (KM12 colon) was over 52.3 µM. For the same molecule, the TGI (LXFL 529 NSCLC) was over 100 µM, the TGI (SN12C renal) was over 95.8 µM and the TGI (DMS 114 small cell lung) was over 36.1 µM. For the same molecule, the TGI (SK-OV-3 ovarian) was 39 µM, the TGI (CCRF-CEM leukemia) was 36.2 µM and the TGI (NCI-H460 lung) was over 36.1 µM. For the same molecule, the TGI (NCI-H23 lung) was over 95 µM, the TGI (U251 CNS) was 36.8 µM and the TGI (A498 renal) was 38.3 µM. For the same molecule, the TGI (OVCAR-4 ovarian) was 34.6 µM, the TGI (RXF 393 renal) was 18.6 µM and the TGI (HL-60(TB) leukemia) was 14.8 µM. For the same molecule, the TGI (HOP-62 NSCLC) was 17.6 µM, the TGI (M19-MEL melanoma) was over 100 µM and the TGI (HCT-116 colon) was 18.2 µM. It also gave a TGI (EKVX NSCLC) of 75.2 µM, a TGI (SF-268 CNS) of over 53.9 µM and a TGI (NCI-H226 lung) of over 100 µM. The TGI (SR leukemia) was 7.91 µM, the TGI (OVCAR-3 ovarian) was over 25.6 µM and the TGI (SW-620 colon) was 24.9 µM. It also gave a TGI (MOLT-4 leukemia) of 28 µM, a TGI (SNB-75 CNS) of 10.9 µM and a TGI (NCI-H522 lung) of over 29.9 µM. It also gave a TGI (DMS 273 small cell lung) of 8.73 µM, a TGI (TK-10 renal) of over 58.9 µM and a TGI (HOP-18 NSCLC) of over 61.2 µM. The TGI (K-562 leukemia) was 13.7 µM, the TGI (SNB-19 CNS) was 45.4 µM and the TGI (COLO 205 colon) was 10.6 µM. The TGI (SK-MEL-2 melanoma) was 15.4 µM, the TGI (LOX IMVI melanoma) was over 100 µM and the TGI (KM20L2 colon) was 13.8 µM. The TGI (M14 melanoma) was 30 µM.
